# Data: patent US12599133B2, “Use of trifluenfuronate for prevention and treatment of agricultural pest insects and mites” (SHANDONG UNITED PESTICIDE INDUSTRY CO., LTD., priority 2020, dated 2026)
# Where two headings read alike, the source gives them in different places.
# Key:
# Bradysia odoriphaga egg = test: Egg toxicity, agent liquid quantitative dropwise addition method; type: in vivo; conditions: 120 h, read-out: Hatchability inhibition
# Protocol: Bradysia odoriphaga egg: The trial was carried out by using an agent liquid quantitative dropwise addition method. A mother solution of the technical material with a mass concentration of 1 wt % was prepared with acetone for later use, and a series of trial concentrations were prepared using a 0.1 wt % aqueous solution of Tween 80. Bradysia odoriphaga eggs aged 2 days were picked up. Each treatment unit comprised 20 eggs. The eggs were placed in a Petri dish with a diameter of 9 cm with filter paper spread in it. 600 μL of agent liquid was dropwise added with a pipette onto the eggs, and 600 μL of agent liquid onto the filter paper. Each treatment was repeated 3 times. A 0.1 wt % aqueous solution of Tween 80 was used to set up a blank control, and the blank control was placed in a biochemical incubator at 24±1° C. after treatment. Five days after application, the trial results were checked.
# Bemisia tabaci egg = test: Egg hatching inhibition, potting spray method; type: in vivo; conditions: read-out: Hatchability inhibition
# Protocol: Bemisia tabaci egg: A potting spray method was adopted. A mother solution of the technical material with a mass concentration of 1 wt % was prepared with acetone for later use, and a series of trial concentrations were prepared using a 0.1 wt % aqueous solution of Tween 80. Potted pepper plants growing at the same pace were selected. Every 6 potted pepper plants were counted as a treatment unit and placed in an insect-raising cage. About 500 silverleaf whiteflies were inoculated into each insect-raising cage and normally kept for 2 days, and then the adults were removed. After the agent was prepared, it was used to spray the pepper plants. After the spraying, the plants were placed in the insect-raising cages. A 0.1 wt % aqueous solution of Tween 80 was used to set up a blank control, and the blank control was placed in an insect-raising chamber at 25° C. After […] nymphs of the blank control group hatched, the number of nymphs in each treatment unit was counted, and the hatching inhibition rate was calculated.
# [1] = system: Tetranychus cinnabarinus Adult female mite; test: Oviposition inhibitory activity determination trial; type: in vivo; conditions: 144 h, read-out: 6-day oviposition inhibition rate; for inhibition at 1 µg/mL: trial concentration 1 mg/L; for inhibition at 5 µg/mL: trial concentration 5 mg/L
# Protocol: (§1) Oviposition inhibitory activity determination trial: A mother solution of the technical material with a mass concentration of 1 wt % was prepared with acetone for later use, and diluted with deionized water comprising 0.1 wt % Tween 80 to a series of trial concentrations. Fresh leaves of cowpea seedlings were selected and cut into round leaf disks with a diameter of about 5.0 cm. The leaf disks were placed in a plastic Petri dish with filter paper and degreased cotton spread in it. 5 mg/L and 10 mg/L treatment agents were applied to the back of the leaves with cotton swabs. An aqueous solution with the same solvent proportion was used as a control agent. After the agent liquid was naturally evaporated under indoor conditions, about 20 female adult mites aged 3-5 days were inoculated onto each leaf. Each treatment was repeated 5 times, about 100 mites were treated The mites were kept in the same conditions, and observed under a binocular dissecting microscope every 24 h over 6 consecutive days, and the number of laid eggs was recorded for each treatment. After the trial ended, the oviposition inhibition rate was calculated for each treatment.
# [2] = system: Tetranychus viennensis Adult female mite; test: as above; type: in vivo; conditions: 144 h, read-out: 6-day oviposition inhibition rate; for inhibition at 1 µg/mL: trial concentration 1 mg/L; for inhibition at 5 µg/mL: trial concentration 5 mg/L
# Protocol: as §1
# [3] = system: Panonychus citri Adult female mite; test: as above; type: in vivo; conditions: 144 h, read-out: 6-day oviposition inhibition rate; for inhibition at 1 µg/mL: trial concentration 1 mg/L; for inhibition at 5 µg/mL: trial concentration 5 mg/L
# Protocol: as §1
# [4] = system: Tetranychus urticae Adult female mite; test: as above; type: in vivo; conditions: 144 h, read-out: 6-day oviposition inhibition rate; for inhibition at 1 µg/mL: trial concentration 1 mg/L; for inhibition at 5 µg/mL: trial concentration 5 mg/L
# Protocol: as §1
# [5] = system: Tetranychus viennensis egg; test: Mite egg hatching inhibitory activity (toxicity to mite eggs), leaf-immersing method; type: in vivo
# Protocol: (§2) Mite egg hatching inhibitory activity determination trial: The trial was carried out using a leaf-immersing method. A mother solution of the technical material with a mass concentration of 1 wt % was prepared with acetone for later use, and diluted with deionized water comprising 0.1 wt % Tween 80 to a series of trial concentrations. A 1.2% aqueous agar was poured into a Petri dish with a diameter of 9 cm and cooled for later use. Twenty adult mites were selected and inoculated onto pepper leaves. After 2 days, the adult mites were removed, and the number of mite eggs is counted. The leaves with eggs were immersed in the prepared agent liquid for 10 s and then taken out. The leaves were placed in a Petri dish and moisturized. Each treatment was repeated 3 times. A 0.1 wt % aqueous solution of Tween 80 was used to set up a blank control. These treatments were placed in a biochemical incubator at 24±1° C. After mite eggs of the blank control group hatched, the trial results were checked, and the hatchability rate was calculated.
# Panonychus citri egg = test: as above; type: in vivo
# Protocol: as §2
# Tetranychus urticae egg = test: as above; type: in vivo
# Protocol: as §2
# [6] = system: Tetranychus cinnabarinus egg; test: as above; type: in vivo
# Protocol: as §2
# [7] = system: Tetranychus cinnabarinus eggs; test: Toxicity to Tetranychus cinnabarinus eggs in different areas; type: in vivo; conditions: for LC50: Tetranychus cinnabarinus
# Protocol: as §2
# The procedure was the same as above except that the assay for toxicity to Tetranychus cinnabarinus eggs was carried out in different areas.
# Maize armyworm egg = test: Egg hatchability inhibition, leaf-immersing method; type: in vivo, Mythimna separate (Walker); conditions: read-out: Hatchability inhibition
# Protocol: (§3) Maize armyworm egg: The trial was carried out using a leaf-immersing method. A mother solution of the technical material with a mass concentration of 1 wt % was prepared with acetone, and diluted with deionized water comprising 0.1 wt % Tween 80 to trial concentrations for later use. 1.2% agar was poured into a Petri dish with a diameter of 9 cm and cooled for later use. Two-leaf one-core corn seedlings were placed in the Petri dish when adult maize armyworms were at the great oviposition phase. After 1 day, the […] seedlings were taken out. Corn seedlings with 20-30 eggs in it were selected and immersed in the agent liquid for 10 s and then taken out, and the corn seedlings were placed in a Petri dish and moisturized. Each treatment was repeated 3 times. A 0.1 wt % aqueous solution of Tween 80 was used to set up a blank control, and the blank control was placed in an insect-raising chamber at 25° C. After larvae of the blank control group hatched, the trial results were checked, and the hatchability was calculated.
# Diamondback moth egg = test: Egg hatchability inhibition, leaf-immersing method; type: in vivo, Plutella xylostella (Linnaeus); conditions: Plutella xylostella, read-out: Hatchability inhibition
# Protocol: as §3, with “Diamondback moth” for “Maize armyworm”, “radish” for “corn”, “diamondback moths” for “maize armyworms”, “Radish” for “Corn”
Compound,inhibition at 1 µg/mL [1] [%],inhibition at 5 µg/mL [1] [%],inhibition at 1 µg/mL [2] [%],inhibition at 5 µg/mL [2] [%],inhibition at 1 µg/mL [3] [%],inhibition at 5 µg/mL [3] [%],inhibition at 1 µg/mL [4] [%],inhibition at 5 µg/mL [4] [%],LC50 [5] [µg/mL],LC90 [5] [µg/mL],LC50 (Panonychus citri egg) [µg/mL],LC90 (Panonychus citri egg) [µg/mL],LC50 (Tetranychus urticae egg) [µg/mL],LC90 (Tetranychus urticae egg) [µg/mL],LC50 [6] [µg/mL],LC90 [6] [µg/mL],"LC50 ([7]; area Fangcun, Taian) [µg/mL]","LC50 ([7]; area Jiyang, Jinan) [µg/mL]","LC50 ([7]; area Qihe, Dezhou) [µg/mL]","LC50 ([7]; area Shouguang, Weifang) [µg/mL]",further results
CC(COc1ccc(Oc2ccccc2)cc1)Oc1ccccn1 (stereo not shown) [Pyriproxyfen],,,,,,,,,,,,,,,,,,,,,"inhibition at 50 µg/mL (Bradysia odoriphaga egg; Bradysia odoriphaga egg, trial concentration 50 mg/L, five days after application): 42.4%; inhibition at 100 µg/mL (Bradysia odoriphaga egg; Bradysia odoriphaga egg, trial concentration 100 mg/L, five days after application): 61.6%; inhibition at 5 µg/mL (Bemisia tabaci egg; Bemisia tabaci egg, trial concentration 5 mg/L): 43.7%; inhibition at 20 µg/mL (Bemisia tabaci egg; Bemisia tabaci egg, trial concentration 20 mg/L): 86.8%"
CCOc1cc(C(C)(C)C)ccc1C1COC(c2c(F)cccc2F)=N1 (stereo not shown) [Etoxazole],35.7,66.8,27,60.8,37.6,65.4,35.9,69.2,17.6,88.51,21.6,123.59,17.8,135.01,18.5,124.23,15.4,5.37,26,7.21,"LC90 ([7]; area Fangcun, Taian): 168.95 µg/mL; LC90 ([7]; area Jiyang, Jinan): 62.95 µg/mL; LC90 ([7]; area Qihe, Dezhou): 162.82 µg/mL; LC90 ([7]; area Shouguang, Weifang): 69.57 µg/mL"
O=C(NC(=O)c1c(F)cccc1F)Nc1cc(Cl)c(OC(F)(F)C(F)C(F)(F)F)cc1Cl (stereo not shown) [Lufenuron],,,,,,,,,,,,,,,,,,,,,"inhibition at 5 µg/mL (Maize armyworm egg; Maize armyworm egg, trial concentration 5 mg/L): 22.6%; inhibition at 20 µg/mL (Maize armyworm egg; Maize armyworm egg, trial concentration 20 mg/L): 58.4%; inhibition at 5 µg/mL (Diamondback moth egg; Diamondback moth egg, trial concentration 5 mg/L): 59.1%; inhibition at 20 µg/mL (Diamondback moth egg; Diamondback moth egg, trial concentration 20 mg/L): 75%"
"COc1ccccc1C1OC(=O)CC1C(=O)OCCC(F)=C(F)F (stereo not shown) [Trifluenfuronate, trifluenfuronate]",47.3,77.7,48.7,75.3,51,77.8,50.4,77,3.66,12.44,3.28,17.97,3.69,18.01,4.12,20.77,3.89,3.92,3.79,4.11,"inhibition at 5 µg/mL (Bradysia odoriphaga egg; Bradysia odoriphaga): 81.3%; inhibition at 20 µg/mL (Bradysia odoriphaga egg; Bradysia odoriphaga): 95.3%; inhibition at 5 µg/mL (Maize armyworm egg): 83.7%; inhibition at 20 µg/mL (Maize armyworm egg): 92.3%; inhibition at 5 µg/mL (Diamondback moth egg): 73.6%; inhibition at 20 µg/mL (Diamondback moth egg): 88.3%; inhibition at 5 µg/mL (Bemisia tabaci egg; Bemisia tabaci): 83.3%; inhibition at 20 µg/mL (Bemisia tabaci egg; Bemisia tabaci): 98.7%; LC90 ([7]; area Fangcun, Taian): 21.95 µg/mL; LC90 ([7]; area Jiyang, Jinan): 20.94 µg/mL; LC90 ([7]; area Qihe, Dezhou): 15.62 µg/mL; LC90 ([7]; area Shouguang, Weifang): 19.37 µg/mL"
